Data taken from ChEMBL document CHEMBL1201862, “PubChem BioAssay data set” (2004).
Each block holds one compound with its values, some of them ahead of it. The source made the active and inactive calls.

Experiments:
Type in all cases: functional
[1] = target: Dual specificity protein kinase CLK4 (Homo sapiens, UniProt Q9HAZ1)
[2] = target: High affinity nerve growth factor receptor (Homo sapiens, UniProt P04629);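 also: NTRK1 tested as one member of a kinome-wide profiling panel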
[3] = target: BDNF/NT-3 growth factors receptor (Homo sapiens, UniProt Q16620);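 also: NTRK2 measured as one member of a broad kinome-wide kinase profiling panel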
[4] = target: Leukocyte tyrosine kinase receptor (Homo sapiens, UniProt P29376); assay: Navigating the Kinome. Panel member name: LTK
[5] = target: Tyrosine-protein kinase receptor TYRO3 (Homo sapiens, UniProt Q06418);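 also: TYRO3 value obtained as one member of a kinome-wide profiling panel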
[6] = target: Dual specificity tyrosine-phosphorylation-regulated kinase 1B (Homo sapiens, UniProt Q9Y463); assay: Navigating the Kinome. Panel member name: DYRK1B
[7] = target: cAMP-dependent protein kinase catalytic subunit alpha (Homo sapiens, UniProt P17612)
[8] = target: Glycogen synthase kinase-3 alpha (Homo sapiens, UniProt P49840);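 also: GSK3A result taken from a broad kinome-wide kinase panel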
[9] = target: Platelet-derived growth factor receptor beta (Homo sapiens, UniProt P09619);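 also: value comes from a kinome panel, with PDGFRB tested as one panel member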
[10] = target: Serine/threonine-protein kinase TAO1 (Homo sapiens, UniProt Q7L7X3)
Chain of Serine/threonine-protein kinase TAO1 (Q7L7X3 whole entry): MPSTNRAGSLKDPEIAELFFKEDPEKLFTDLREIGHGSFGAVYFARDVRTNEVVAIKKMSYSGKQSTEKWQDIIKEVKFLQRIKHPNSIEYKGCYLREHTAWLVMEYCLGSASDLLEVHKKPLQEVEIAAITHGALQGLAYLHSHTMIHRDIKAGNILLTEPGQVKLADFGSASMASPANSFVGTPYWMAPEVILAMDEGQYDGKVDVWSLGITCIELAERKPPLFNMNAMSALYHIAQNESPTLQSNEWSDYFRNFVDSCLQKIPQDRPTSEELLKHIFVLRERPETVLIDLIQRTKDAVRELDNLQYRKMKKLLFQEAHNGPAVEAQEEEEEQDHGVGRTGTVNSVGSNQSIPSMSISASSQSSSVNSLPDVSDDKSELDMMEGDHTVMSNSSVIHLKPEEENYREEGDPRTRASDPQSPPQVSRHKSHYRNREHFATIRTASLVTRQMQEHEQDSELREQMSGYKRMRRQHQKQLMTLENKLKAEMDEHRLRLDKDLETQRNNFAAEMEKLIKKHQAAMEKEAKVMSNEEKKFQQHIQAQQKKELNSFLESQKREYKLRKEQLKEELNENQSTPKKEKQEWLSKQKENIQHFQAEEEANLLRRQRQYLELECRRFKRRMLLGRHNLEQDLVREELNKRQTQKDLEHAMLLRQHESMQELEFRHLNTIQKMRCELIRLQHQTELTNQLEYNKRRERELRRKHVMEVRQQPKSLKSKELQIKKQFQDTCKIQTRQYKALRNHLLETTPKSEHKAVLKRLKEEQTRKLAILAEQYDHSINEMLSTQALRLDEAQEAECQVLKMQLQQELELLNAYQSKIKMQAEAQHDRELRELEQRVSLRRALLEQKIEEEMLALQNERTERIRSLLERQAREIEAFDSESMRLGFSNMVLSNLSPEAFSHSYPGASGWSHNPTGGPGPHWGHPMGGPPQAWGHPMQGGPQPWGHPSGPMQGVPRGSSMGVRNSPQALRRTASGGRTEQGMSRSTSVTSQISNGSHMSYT

Aurora kinase A = Aurora kinase A (Homo sapiens, UniProt O14965);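 also: value from the Navigating the Kinome kinase panel profiling, panel entry STK6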
[11] = target: Vascular endothelial growth factor receptor 2 (Homo sapiens, UniProt P35968)
Chain of Vascular endothelial growth factor receptor 2 (P35968 whole entry): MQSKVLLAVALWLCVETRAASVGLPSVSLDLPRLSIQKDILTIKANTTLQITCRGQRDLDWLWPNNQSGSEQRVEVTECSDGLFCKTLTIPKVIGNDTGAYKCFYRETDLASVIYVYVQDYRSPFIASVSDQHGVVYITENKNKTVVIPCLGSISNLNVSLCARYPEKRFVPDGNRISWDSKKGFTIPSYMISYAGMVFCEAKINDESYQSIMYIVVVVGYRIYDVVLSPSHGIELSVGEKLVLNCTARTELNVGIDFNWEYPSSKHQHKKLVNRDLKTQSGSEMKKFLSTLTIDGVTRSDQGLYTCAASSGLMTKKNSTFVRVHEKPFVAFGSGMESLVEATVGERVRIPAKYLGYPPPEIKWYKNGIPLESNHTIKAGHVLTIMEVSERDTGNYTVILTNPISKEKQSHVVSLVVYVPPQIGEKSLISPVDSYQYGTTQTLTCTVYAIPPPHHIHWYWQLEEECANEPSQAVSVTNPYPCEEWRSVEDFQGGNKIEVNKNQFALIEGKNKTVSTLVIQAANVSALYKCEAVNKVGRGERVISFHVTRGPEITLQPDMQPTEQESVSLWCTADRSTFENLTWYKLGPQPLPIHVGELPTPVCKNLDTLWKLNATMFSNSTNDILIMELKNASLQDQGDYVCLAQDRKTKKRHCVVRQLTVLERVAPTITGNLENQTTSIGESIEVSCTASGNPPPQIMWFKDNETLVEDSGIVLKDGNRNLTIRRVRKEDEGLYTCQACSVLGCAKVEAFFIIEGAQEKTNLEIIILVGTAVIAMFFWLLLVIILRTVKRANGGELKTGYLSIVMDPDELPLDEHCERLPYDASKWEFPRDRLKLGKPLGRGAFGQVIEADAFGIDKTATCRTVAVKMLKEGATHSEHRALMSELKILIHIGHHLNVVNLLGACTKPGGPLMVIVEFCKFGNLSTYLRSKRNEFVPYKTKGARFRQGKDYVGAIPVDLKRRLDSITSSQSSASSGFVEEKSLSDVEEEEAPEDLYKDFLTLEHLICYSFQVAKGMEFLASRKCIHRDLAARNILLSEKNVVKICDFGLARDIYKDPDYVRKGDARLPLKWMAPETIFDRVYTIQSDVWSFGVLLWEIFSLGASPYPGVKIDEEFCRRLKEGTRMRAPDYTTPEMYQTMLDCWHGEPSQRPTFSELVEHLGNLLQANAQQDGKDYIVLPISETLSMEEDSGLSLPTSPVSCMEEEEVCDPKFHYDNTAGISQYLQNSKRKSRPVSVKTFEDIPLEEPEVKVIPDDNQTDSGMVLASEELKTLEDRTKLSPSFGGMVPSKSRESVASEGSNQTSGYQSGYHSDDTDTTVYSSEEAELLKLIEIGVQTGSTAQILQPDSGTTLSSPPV

[12] = target: Inhibitor of nuclear factor kappa-B kinase subunit epsilon (Homo sapiens, UniProt Q14164); assay: Navigating the Kinome. Panel member name: IKBKE
[13] = target: Death-associated protein kinase 3 (Homo sapiens, UniProt O43293);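 also: measured as one member of a kinome-wide profiling panel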
[14] = target: Cyclin-dependent kinase 9 (Homo sapiens, UniProt P50750);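 also: value from the CDK9 entry of a kinome-spanning kinase panel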
Chain of Cyclin-dependent kinase 9 (P50750 whole entry, canonical isoform): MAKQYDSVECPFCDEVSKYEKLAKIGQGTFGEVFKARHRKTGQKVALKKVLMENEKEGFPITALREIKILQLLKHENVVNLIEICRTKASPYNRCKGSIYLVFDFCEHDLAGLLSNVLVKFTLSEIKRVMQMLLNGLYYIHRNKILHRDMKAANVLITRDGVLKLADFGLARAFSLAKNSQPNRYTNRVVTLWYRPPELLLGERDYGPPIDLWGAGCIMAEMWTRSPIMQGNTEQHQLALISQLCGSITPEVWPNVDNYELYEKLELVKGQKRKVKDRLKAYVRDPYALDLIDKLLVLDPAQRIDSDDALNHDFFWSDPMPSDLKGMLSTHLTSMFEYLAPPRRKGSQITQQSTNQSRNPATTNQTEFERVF

[15] = target: Casein kinase I isoform alpha (Homo sapiens, UniProt P48729)
[16] = target: Dual specificity tyrosine-phosphorylation-regulated kinase 1A (Homo sapiens, UniProt Q13627);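 also: measured against DYRK1A as one member of a broad kinome profiling panel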
LIM domain kinase 1 = LIM domain kinase 1 (Homo sapiens, UniProt P53667); assay: Navigating the Kinome. Panel member name: LIMK1
[17] = target: Macrophage colony-stimulating factor 1 receptor (Homo sapiens, UniProt P07333);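 also: value comes from the Navigating the Kinome screening panel, CSF1R member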
Chain of Macrophage colony-stimulating factor 1 receptor (P07333 whole entry): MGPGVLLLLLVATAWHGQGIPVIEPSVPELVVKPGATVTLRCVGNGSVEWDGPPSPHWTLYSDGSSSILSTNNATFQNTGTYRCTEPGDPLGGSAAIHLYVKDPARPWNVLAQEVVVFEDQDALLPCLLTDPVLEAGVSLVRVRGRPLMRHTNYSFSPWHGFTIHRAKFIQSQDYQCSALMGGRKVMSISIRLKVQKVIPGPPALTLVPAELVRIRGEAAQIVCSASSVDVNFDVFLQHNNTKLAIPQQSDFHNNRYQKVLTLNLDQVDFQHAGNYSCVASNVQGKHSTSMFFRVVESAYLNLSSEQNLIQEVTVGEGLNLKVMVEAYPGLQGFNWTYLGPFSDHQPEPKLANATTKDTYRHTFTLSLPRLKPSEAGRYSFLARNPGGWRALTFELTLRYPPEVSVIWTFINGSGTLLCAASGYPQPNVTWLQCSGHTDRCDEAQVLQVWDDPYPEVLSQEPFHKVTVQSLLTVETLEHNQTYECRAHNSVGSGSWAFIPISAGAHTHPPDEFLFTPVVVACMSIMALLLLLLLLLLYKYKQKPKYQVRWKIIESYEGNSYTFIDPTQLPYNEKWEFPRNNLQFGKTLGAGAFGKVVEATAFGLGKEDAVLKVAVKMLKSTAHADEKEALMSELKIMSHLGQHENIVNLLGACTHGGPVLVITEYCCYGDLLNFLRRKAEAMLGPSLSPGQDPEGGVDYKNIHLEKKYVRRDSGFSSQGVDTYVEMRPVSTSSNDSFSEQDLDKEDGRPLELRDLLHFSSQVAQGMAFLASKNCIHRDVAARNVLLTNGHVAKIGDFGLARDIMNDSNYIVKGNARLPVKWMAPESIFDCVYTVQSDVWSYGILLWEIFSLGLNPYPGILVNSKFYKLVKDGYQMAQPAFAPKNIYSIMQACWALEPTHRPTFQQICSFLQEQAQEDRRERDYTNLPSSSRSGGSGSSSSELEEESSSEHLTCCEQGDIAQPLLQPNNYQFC

[18] = target: Serine/threonine-protein kinase Chk1 (Homo sapiens, UniProt O14757);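 also: measured as one member of a kinome-wide kinase profiling panel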
[19] = target: Protein kinase C theta type (Homo sapiens, UniProt Q04759); assay: Navigating the Kinome. Panel member name: PRKCQ

Chain of Dual specificity protein kinase CLK4 (Q9HAZ1 whole entry): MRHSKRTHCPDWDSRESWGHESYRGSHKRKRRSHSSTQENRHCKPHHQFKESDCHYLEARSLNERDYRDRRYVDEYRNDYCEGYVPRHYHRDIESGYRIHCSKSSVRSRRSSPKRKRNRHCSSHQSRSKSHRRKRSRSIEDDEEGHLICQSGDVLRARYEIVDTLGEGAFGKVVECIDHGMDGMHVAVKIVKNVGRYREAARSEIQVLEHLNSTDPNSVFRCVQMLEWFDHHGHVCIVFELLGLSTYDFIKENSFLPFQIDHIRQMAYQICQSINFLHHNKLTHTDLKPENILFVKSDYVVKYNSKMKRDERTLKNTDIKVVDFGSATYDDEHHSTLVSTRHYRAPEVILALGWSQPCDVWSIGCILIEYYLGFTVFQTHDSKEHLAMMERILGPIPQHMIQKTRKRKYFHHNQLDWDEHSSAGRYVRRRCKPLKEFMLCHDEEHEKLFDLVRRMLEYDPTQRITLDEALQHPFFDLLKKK
Chain of High affinity nerve growth factor receptor (P04629 whole entry): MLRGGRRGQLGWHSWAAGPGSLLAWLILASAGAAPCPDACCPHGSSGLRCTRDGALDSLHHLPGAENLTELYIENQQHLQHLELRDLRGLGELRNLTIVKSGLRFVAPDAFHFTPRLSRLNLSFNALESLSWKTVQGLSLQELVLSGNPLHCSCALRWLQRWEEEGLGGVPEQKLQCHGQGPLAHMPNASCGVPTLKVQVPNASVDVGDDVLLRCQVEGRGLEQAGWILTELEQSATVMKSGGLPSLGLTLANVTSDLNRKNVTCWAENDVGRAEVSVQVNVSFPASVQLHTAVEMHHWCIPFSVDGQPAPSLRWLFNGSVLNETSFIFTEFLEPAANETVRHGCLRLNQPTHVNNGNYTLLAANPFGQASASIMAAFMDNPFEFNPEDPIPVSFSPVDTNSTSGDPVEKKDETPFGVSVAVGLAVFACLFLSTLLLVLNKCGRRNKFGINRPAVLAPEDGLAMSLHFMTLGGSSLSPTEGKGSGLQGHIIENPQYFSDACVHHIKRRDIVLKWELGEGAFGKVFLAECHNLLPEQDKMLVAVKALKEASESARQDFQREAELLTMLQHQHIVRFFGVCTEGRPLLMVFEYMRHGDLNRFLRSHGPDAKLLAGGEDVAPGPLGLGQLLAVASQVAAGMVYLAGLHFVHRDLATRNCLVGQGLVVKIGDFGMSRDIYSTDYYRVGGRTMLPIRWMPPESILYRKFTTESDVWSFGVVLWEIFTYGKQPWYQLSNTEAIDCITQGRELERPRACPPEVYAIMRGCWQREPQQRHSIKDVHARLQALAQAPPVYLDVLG

Ki [1]: 20 µM (active)
Ki [2]: 50.1 µM (active)
Ki [3]: 63.1 µM (active)
Ki [4]: 79.4 µM (active)
Ki [5]: 79.4 µM (active)
Structure (SMILES): Cn1c(N)nc2sccc21

Ki [1]: 0.2 µM (active)
Ki [6]: 0.631 µM (active)
Ki [7]: > 50.1 µM (inactive)
Ki [8]: 25.1 µM (active)
Ki [9]: > 79.4 µM (inactive)
Ki [10]: 6.31 µM (active)
Ki (Aurora kinase A): 63.1 µM (active)
Ki [11]: > 100 µM (inactive)
Ki [12]: 79.4 µM (active)
Ki [14]: > 63.1 µM (inactive)
Ki [15]: 20 µM (active)
Ki [16]: > 79.4 µM (inactive)
Ki (LIM domain kinase 1): 3.16 µM (active)
Ki [17]: > 100 µM (inactive)
Ki [18]: 2 µM (active)
Ki [19]: > 100 µM (inactive)
Structure (SMILES): CC(=O)n1ncc2cc(N)ccc21
Ki [13]: 5.01 µM (active)
